From patent publication US8883745B2, “C—glycolipids with enhanced Th-1 profile” (New York University, priority 2006, dated 2014)

Experiments:
Type in all cases: in vivo
IL-4 = IL-4 levels in sera upon i.v. glycolipid administration to BALB/c mice (ELISA); set-up: unit not given here
Procedure: (§1) Five- to six-week-old female C57BL/6 mice and BALB/c mice were purchased from Taconic. Each glycolipid was stored at 1 mg/ml in 100% DMSO. Mice were injected intravenously with 1 μg of each glyocolipid diluted in 200 μL sterile phosphate buffered saline (PBS). At indicated time points, sera were collected from each animal, and concentrations of IFN-γ, IL-4, and IL-12 in the sera were evaluated by enzyme-linked immunosorbent assay (ELISA). Serum concentrations of IFN-γ, IL-4, and IL-12 were evaluated using an ELISA kit (eBioscience, San Diego, Calif.). Briefly, 96 well flat-bottom ELISA plates (NUNC) were coated with capture antibody according to the manufacture's recommendation and incubated overnight at 4° C. The plates were washed with PBS+0.05% Tween 20 (PBS-T), then incubated with manufacturer provided blocking solution for 1 hr at room temperature to block non-specific binding sites. After washing with PBS-T, sera diluted 1:10 was added to the wells and incubated for 2 hrs at room temperature. Plates were then incubated at room temperature for 1 hr with biotintylated detection antibody, washed, incubated with avidin conjugated to horse radish peroxidase (HRP) for 30 min at room temperature, washed, and finally incubated with tetramethylbenzidine substrate solution in the dark for 10 minutes at room temperature. The antibodies, avidin-HRP, and substrate solution were all diluted according to the manufacture's recommendation. Reactions were stopped with 2.0N sulfuric acid and the cytokine concentration in each well was determined by comparing the absorbance at 450 nm in each well to known standards. The levels of Th1- and Th2-type cytokines were determined in two different genetic backgrounds, i.e., in C57BL/6 mice and BALB/c mice. The following compounds were administered: A=compound (A-1 trans-conformer), B=compound (A-2), C=compound (A-3), D=compound (A-4), E=compound (A-5), Z=control (PBS alone), CRONY=α-C-GalCer, KRN=α-GalCer, GCK109 (A-1 trans-conformer), GCK151 (A-1 cis-conformer), GCK152 (A-7). The levels of cytokines were measured at 0, 2, 6, 12, 24, 48, and 72 hours after the compound administration. The levels of Th1-type cytokines IFN-γ and IL-12 are summarized in FIGS. 2A-C and 3A-C, respectively. Table 7 provides IFN-γ/IL-4 and IL-12/IL-4 ratios for various compounds, which can be used as indicators of their ability to selectively stimulate Th1-type immune responses.

IL-12 [1] = experiment: IL-12 levels in sera upon i.v. glycolipid administration to BALB/c mice (ELISA); set-up: IL-12 levels, test 1 / IL-12 levels, test 2 / IL-12 levels, average / IL-12 levels, Total: unit not given here
Procedure: as §1

IFN-γ = IFN-γ levels in sera upon i.v. glycolipid administration to BALB/c mice (ELISA); set-up: IFN-γ levels, test 1 / IFN-γ levels, test 2 / IFN-γ levels, average / IFN-γ levels, Total: unit not given here
Procedure: as §1

IL-12 [2] = experiment: IL-12 levels in sera upon i.v. glycolipid administration to C57BL/6 mice (ELISA); set-up: IL-12 levels, test 1 / IL-12 levels, test 2 / IL-12 levels, average / IL-12 levels, Total: unit not given here
Procedure: as §1

## CCCCCCCCCCCCCCCCCCCCCCCCCCCCC(=O)N[C@@H](/C=C/[C@H]1O[C@H](CO)[C@H](O)[C@H](O)[C@H]1O)[C@H](O)[C@H](O)CCCCCCCCCCCCCC [A-2, (3S,4S,5R)-1-C-(α-D-galactopyranosyl)-3-(N-nonacosanoylamino)-4,5-nonadec-(1,2-E)-enediol]
IL-4; hour 0
  IL-4 level, average: 27
  IL-4 level, test 1: 27
  IL-4 level, test 2: 27
IL-4; hour 2
  IL-4 level, average: 330
  IL-4 level, test 1: 263
  IL-4 level, test 2: 397
IL-4; hour 6
  IL-4 level, average: 127
  IL-4 level, test 1: 90
  IL-4 level, test 2: 164
IL-4; hour 12
  IL-4 level, average: 49.5
  IL-4 level, test 1: 48
  IL-4 level, test 2: 51
IL-4; hour 24
  IL-4 level, average: 45.5
  IL-4 level, test 1: 43
  IL-4 level, test 2: 48
IL-4; hour 48
  IL-4 level, average: 40.5
  IL-4 level, test 1: 42
  IL-4 level, test 2: 39
IL-4; hour 72
  IL-4 level, average: 2
  IL-4 level, test 1: 2
  IL-4 level, test 2: 2
IL-4; total over hours 0-72
  IL-4 level, Total: 623
IL-12 [1]; ratio calculated from Tables 1-6
  IL-12/IL-4 (BALB/c): 30
IL-12 [1]; serum, hour 0
  IL-12 levels, average: 5
  IL-12 levels, test 1: 5
  IL-12 levels, test 2: 5
IL-12 [1]; serum, hour 2
  IL-12 levels, average: 74
  IL-12 levels, test 1: 141
  IL-12 levels, test 2: 7
IL-12 [1]; serum, hour 6
  IL-12 levels, average: 7251.5
  IL-12 levels, test 1: 7080
  IL-12 levels, test 2: 7423
IL-12 [1]; serum, hour 12
  IL-12 levels, average: 10800
  IL-12 levels, test 1: 11600
  IL-12 levels, test 2: 10000
IL-12 [1]; serum, hour 24
  IL-12 levels, average: 442.5
  IL-12 levels, test 1: 454
  IL-12 levels, test 2: 431
IL-12 [1]; serum, hour 48
  IL-12 levels, average: 66.5
  IL-12 levels, test 1: 0
  IL-12 levels, test 2: 133
IL-12 [1]; serum, hour 72
  IL-12 levels, average: 222.5
  IL-12 levels, test 1: 3
  IL-12 levels, test 2: 442
IL-12 [1]; serum, total over hours 0-72
  IL-12 levels, Total: 18864
IFN-γ; BALB/c, ratio calculated from Tables 1-6
  IFN-γ/IL-4 (BALB/c): 43
IFN-γ; BALB/c, serum, hour 0
  IFN-γ levels, average: 27
  IFN-γ levels, test 1: 27
  IFN-γ levels, test 2: 27
IFN-γ; BALB/c, serum, hour 2
  IFN-γ levels, average: 234
  IFN-γ levels, test 1: 197
  IFN-γ levels, test 2: 271
IFN-γ; BALB/c, serum, hour 6
  IFN-γ levels, average: 4185.5
  IFN-γ levels, test 1: 3723
  IFN-γ levels, test 2: 4648
IFN-γ; BALB/c, serum, hour 12
  IFN-γ levels, average: 6418.5
  IFN-γ levels, test 1: 7529
  IFN-γ levels, test 2: 5308
IFN-γ; BALB/c, serum, hour 24
  IFN-γ levels, average: 15500
  IFN-γ levels, test 1: 16500
  IFN-γ levels, test 2: 14500
IFN-γ; BALB/c, serum, hour 48
  IFN-γ levels, average: 325.5
  IFN-γ levels, test 1: 319
  IFN-γ levels, test 2: 332
IFN-γ; BALB/c, serum, hour 72
  IFN-γ levels, average: 62.5
  IFN-γ levels, test 1: 59
  IFN-γ levels, test 2: 66
IFN-γ; BALB/c, serum, total over hours 0-72
  IFN-γ levels, Total: 26755
IFN-γ; C57BL/6 and BALB/c mice, 1 μg i.v.
  effect: higher/extended IFN-γ and IL-12 with much lower IL-4 compared to α-GalCer (KRN): particularly pronounced
IL-12 [2]; C57BL/6, ratio calculated from Tables 1-6
  IL-12/IL-4 (B6): 4.8
IL-12 [2]; C57BL/6, serum, hour 0
  IL-12 levels, average: 5
  IL-12 levels, test 1: 5
  IL-12 levels, test 2: 5
IL-12 [2]; C57BL/6, serum, hour 2
  IL-12 levels, average: 161.5
  IL-12 levels, test 1: 178
  IL-12 levels, test 2: 145
IL-12 [2]; C57BL/6, serum, hour 6
  IL-12 levels, average: 1363.5
  IL-12 levels, test 1: 1488
  IL-12 levels, test 2: 1239
IL-12 [2]; C57BL/6, serum, hour 12
  IL-12 levels, average: 1818.5
  IL-12 levels, test 1: 1692
  IL-12 levels, test 2: 1945
IL-12 [2]; C57BL/6, serum, hour 24
  IL-12 levels, average: 323
  IL-12 levels, test 1: 44
  IL-12 levels, test 2: 602
IL-12 [2]; C57BL/6, serum, hour 48
  IL-12 levels, average: 250
  IL-12 levels, test 1: 500
  IL-12 levels, test 2: 0
IL-12 [2]; C57BL/6, serum, hour 72
  IL-12 levels, average: 45.5
  IL-12 levels, test 1: 91
  IL-12 levels, test 2: 0
IL-12 [2]; C57BL/6, serum, total over hours 0-72
  IL-12 levels, Total: 3969
